Measurements published in PubChem BioAssay AID1919008 (Molecular Pharmacology Branch, DTP, NCI, 2023).

System: DMS-114 complex spheroids with HUVEC/MSC, growth % test/control
Experiment: Anticancer human tumor DMS-114 cell line growth inhibition [AhR];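 note: spheroids exposed to agents for 7 days before readout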;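 for viability, T/C: 100% = DMSO vehicle control wells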
Settings: for IC50: curve of first compound; for viability, T/C: stronger effect = lower value
Procedure, shortened: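 Complex tumor spheroids co-cultured with HUVEC and human MSC stroma; AhR antagonists tested in combination with standard-of-care and investigational agents. Top concentration at or near clinical Cmax (else 10 microM), half-log dilutions; growth expressed as percent test/control.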

[1] = second compound 0.1 µM, first compound 0.0316 µM
[2] = second compound 0.1 µM, first compound 0.1 µM
[3] = second compound 0.1 µM, first compound 0.316 µM
[4] = second compound 0.1 µM, first compound 1 µM
[5] = second compound 0.316 µM, first compound 0.0316 µM
[6] = second compound 0.316 µM, first compound 0.1 µM
[7] = second compound 0.316 µM, first compound 0.316 µM
[8] = second compound 0.316 µM, first compound 1 µM
[9] = second compound 1 µM, first compound 0.0316 µM
[10] = second compound 1 µM, first compound 0.1 µM
[11] = second compound 1 µM, first compound 0.316 µM
[12] = second compound 1 µM, first compound 1 µM
[13] = second compound 3.16 µM, first compound 0.0316 µM
[14] = second compound 3.16 µM, first compound 0.1 µM
[15] = second compound 3.16 µM, first compound 0.316 µM
[16] = second compound 3.16 µM, first compound 1 µM
[17] = second compound 10 µM, first compound 0.0316 µM
[18] = second compound 10 µM, first compound 0.1 µM
[19] = second compound 10 µM, first compound 0.316 µM
[20] = second compound 10 µM, first compound 1 µM
[21] = second compound 0.1 µM, first compound 0.00316 µM
[22] = second compound 0.1 µM, first compound 0.01 µM
[23] = second compound 0.316 µM, first compound 0.00316 µM
[24] = second compound 0.316 µM, first compound 0.01 µM
[25] = second compound 1 µM, first compound 0.00316 µM
[26] = second compound 1 µM, first compound 0.01 µM
[27] = second compound 3.16 µM, first compound 0.00316 µM
[28] = second compound 3.16 µM, first compound 0.01 µM
[29] = second compound 10 µM, first compound 0.00316 µM
[30] = second compound 10 µM, first compound 0.01 µM
[31] = second compound 0.1 µM, first compound 0.000316 µM
[32] = second compound 0.1 µM, first compound 0.001 µM
[33] = second compound 0.316 µM, first compound 0.000316 µM
[34] = second compound 0.316 µM, first compound 0.001 µM
[35] = second compound 1 µM, first compound 0.000316 µM
[36] = second compound 1 µM, first compound 0.001 µM
[37] = second compound 3.16 µM, first compound 0.000316 µM
[38] = second compound 3.16 µM, first compound 0.001 µM
[39] = second compound 10 µM, first compound 0.000316 µM
[40] = second compound 10 µM, first compound 0.001 µM

| Compound | IC50 (second compound 0.1 µM) [nM] | IC50 (second compound 0.316 µM) [nM] | IC50 (second compound 1 µM) [nM] | IC50 (second compound 3.16 µM) [nM] | IC50 (second compound 10 µM) [nM] | viability, T/C [1] [%] | viability, T/C [2] [%] | viability, T/C [5] [%] | viability, T/C [6] [%] | viability, T/C [9] [%] | viability, T/C [10] [%] | viability, T/C [13] [%] | viability, T/C [14] [%] | viability, T/C [17] [%] | viability, T/C [18] [%] | viability, T/C [21] [%] | viability, T/C [22] [%] | viability, T/C [23] [%] | viability, T/C [24] [%] | viability, T/C [25] [%] | also measured |
| --- | --- | --- | --- | --- | --- | --- | --- | --- | --- | --- | --- | --- | --- | --- | --- | --- | --- | --- | --- | --- | --- |
| CC(C)c1c(-c2ccccc2)nc2c(C#N)c[nH]n2c1=O + CC(CO)NC(=O)c1cc(-c2ccc(Cl)cc2)nn(-c2cnn(C)c2)c1=O | > 10000 | > 10000 | > 10000 | > 10000 | > 10000 | 93.8 | 95.8 | 96.8 | 98.5 | 93.7 | 100 | 103 | 96.6 | 103 | 105 |  |  |  |  |  | viability, T/C [3]: 93.8%; viability, T/C [4]: 95.7%; viability, T/C (second compound 0.1 µM, first compound 3.16 µM): 113%; viability, T/C (second compound 0.1 µM, first compound 10 µM): 108%; viability, T/C [7]: 101%; viability, T/C [8]: 98.9%; viability, T/C (second compound 0.316 µM, first compound 3.16 µM): 110%; viability, T/C (second compound 0.316 µM, first compound 10 µM): 113%; viability, T/C [11]: 89.6%; viability, T/C [12]: 97.7%; viability, T/C (second compound 1 µM, first compound 3.16 µM): 97.3%; viability, T/C (second compound 1 µM, first compound 10 µM): 103%; viability, T/C [15]: 95.1%; viability, T/C [16]: 94.6%; viability, T/C (second compound 3.16 µM, first compound 3.16 µM): 92.3%; viability, T/C (second compound 3.16 µM, first compound 10 µM): 105%; viability, T/C [19]: 96.1%; viability, T/C [20]: 104%; viability, T/C (second compound 10 µM, first compound 3.16 µM): 99.5%; viability, T/C (second compound 10 µM, first compound 10 µM): 113% |
| Nc1ncn(C2CC(O)C(CO)O2)c(=O)n1 (stereo not given) + CC(CO)NC(=O)c1cc(-c2ccc(Cl)cc2)nn(-c2cnn(C)c2)c1=O | > 1000 | > 1000 | > 1000 | > 1000 | > 1000 | 97.8 | 96.5 | 93.9 | 80 | 90.3 | 93.8 | 80.1 | 94.5 | 93.4 | 98 | 102 | 95.6 | 122 | 101 | 91.3 | viability, T/C [3]: 85%; viability, T/C [4]: 61.6%; viability, T/C [7]: 79.8%; viability, T/C [8]: 59.8%; viability, T/C [26]: 105%; viability, T/C [11]: 83.3%; viability, T/C [12]: 72.3%; viability, T/C [27]: 109%; viability, T/C [28]: 104%; viability, T/C [15]: 85.1%; viability, T/C [16]: 70.7%; viability, T/C [29]: 101%; viability, T/C [30]: 99.7%; viability, T/C [19]: 91.8%; viability, T/C [20]: 76.5% |
| CC[C@@]1(O)C(=O)OCc2c1cc1n(c2=O)Cc2cc3c(CN(C)C)c(O)ccc3nc2-1 + Cc1ccccc1N=Nc1ccc(NC(=O)c2ccnn2C)c(C)c1 | 61.1 | 65.1 | 71.2 | 74.1 | 61.2 | 66.2 | 38 | 61.7 | 43 | 65 | 43.7 | 68.5 | 43.5 | 58 | 44.1 | 97.8 | 88.6 | 100 | 102 | 99.6 | viability, T/C [31]: 99.3%; viability, T/C [32]: 102%; viability, T/C [33]: 95%; viability, T/C [34]: 106%; viability, T/C [35]: 99.2%; viability, T/C [36]: 92.3%; viability, T/C [26]: 94%; viability, T/C [37]: 89.2%; viability, T/C [38]: 92.1%; viability, T/C [27]: 93.2%; viability, T/C [28]: 83.4%; viability, T/C [39]: 91.8%; viability, T/C [40]: 92.2%; viability, T/C [29]: 92.1%; viability, T/C [30]: 87.6% |
| CC[C@@]1(O)C(=O)OCc2c1cc1n(c2=O)Cc2cc3c(CN(C)C)c(O)ccc3nc2-1 + CC(CO)NC(=O)c1cc(-c2ccc(Cl)cc2)nn(-c2cnn(C)c2)c1=O | 34.6 | 32.4 | 37.2 | 32.7 | 32.8 | 51.9 | 27.2 | 46 | 26.9 | 54.6 | 21.9 | 51 | 26.4 | 48.1 | 25.4 | 95.7 | 95.2 | 83.2 | 81.3 | 90 | viability, T/C [31]: 101%; viability, T/C [32]: 103%; viability, T/C [33]: 105%; viability, T/C [34]: 99%; viability, T/C [35]: 88.9%; viability, T/C [36]: 95.2%; viability, T/C [26]: 85.5%; viability, T/C [37]: 104%; viability, T/C [38]: 100%; viability, T/C [27]: 92.1%; viability, T/C [28]: 74.2%; viability, T/C [39]: 116%; viability, T/C [40]: 105%; viability, T/C [29]: 95.1%; viability, T/C [30]: 92.7% |
